Measurements reported in patent publication US20190133128A1, “Fungicidal pyridazinones” (FMC Corporation, priority 2017, published 2019).
Marks after values point to notes of the source that are not given here.

How the values were obtained:
Type in all cases: in vivo
Botrytis cinerea = assay: Test C: preventive spray on tomato seedlings, gray mold, visual disease rating
From the text: (§1) General protocol for preparing test solutions for Tests AG: the test compounds were first dissolved in acetone in an amount equal to 3% of the final volume and then suspended at the desired concentration (in ppm) in acetone and purified water (50/50 mix by volume) containing the surfactant PEG400 (polyhydric alcohol esters). The resulting test suspensions were then used in Tests AG. Compounds were sprayed at a concentration of 250 ppm or other indicated rate to the point of run-off on the test plants. The test solution was sprayed to the point of run-off on tomato seedlings. […] A dash (-) indicates no test results.

[1] = system: Puccinia recondita f. sp. tritici; assay: Test F: preventive spray on wheat seedlings, wheat leaf rust, visual disease rating
From the text: as §1, with “wheat” for “tomato”, “seedlings. The following day the seedlings were inoculated with a spore suspension of Puccinia recondita f. sp. tritici;” for “seedlings.”

Phakopsora pachyrhizi = assay: Test A: preventive spray on soybean seedlings, Asian soybean rust, visual disease rating; conditions: 250 ppm, 100 = 100% disease control, 0 = no control
Zymoseptoria tritici = assay: Test E: preventive spray on wheat seedlings, wheat leaf blotch, visual disease rating
From the text: as §1, with “wheat” for “tomato”

[2] = system: Erysiphe graminis f. sp. tritici; assay: Test G: preventive spray on wheat seedlings, wheat powdery mildew, visual disease rating
From the text: as §1, with “wheat” for “tomato”

Phytophthora infestans = assay: whole plant or invertebrate; conditions: for Test D disease control rating: tomato seedlings
[3] = 250 ppm, 100 = 100% disease control, 0 = no control

Row | Compound | Test C disease control rating (Botrytis cinerea; [3]) | Test F disease control rating [1, 3] | Test G disease control rating [2, 3] | Test D disease control rating (Phytophthora infestans; [3]) | Test C disease control rating (Botrytis cinerea; 200 ppm) | Test F disease control rating ([1]; 200 ppm) | Test G disease control rating ([2]; 200 ppm) | Test D disease control rating (Phytophthora infestans; 200 ppm) | also measured
1 | Cn1ncc(OC(=O)c2ccccc2)c(C(=O)N(C(=O)c2ccccc2)c2ccc(OC(F)(F)F)cc2)c1=O [Compound 81] | 0% | 98% | 0% | 0% | – | – | – | – | Test A disease control rating (Phakopsora pachyrhizi): 0%; Test E disease control rating (Zymoseptoria tritici; [3]): 67%
2 | COc1cccc(NC(=O)c2c(OS(C)(=O)=O)cnn(C)c2=O)c1 [Compound 108] | 0% | 68% | 0% | 0% | – | – | – | – | Test A disease control rating (Phakopsora pachyrhizi): 0%; Test E disease control rating (Zymoseptoria tritici; [3]): 0%
3 | COc1cnn(C)c(=O)c1C(=O)Nc1ccc(Br)cc1 [Compound 59] | 0% | 0% | 0% | 0% | – | – | – | – | Test A disease control rating (Phakopsora pachyrhizi): 0%; Test E disease control rating (Zymoseptoria tritici; [3]): 0%
4 | Cn1ncc(O)c(C(=O)Nc2cccc(OC(F)(F)F)c2)c1=O [Compound 57] | 0% | 84% | 98% | 0% | – | – | – | – | Test A disease control rating (Phakopsora pachyrhizi): 0%; Test E disease control rating (Zymoseptoria tritici; [3]): 8%
5 | Cn1ncc(O)c(C(=O)Nc2ccc(S(F)(F)(F)(F)F)cc2)c1=O [Compound 91, [4-[[[2,3-Dihydro-5-hydroxy-2-methyl-3-oxo-4-pyridazinyl]carbonyl]amino]phenyl]pentafluorosulfur] | – | – | – | – | – | – | – | – | pest or weed control at 250 ppm (Botrytis cinerea; Botrytis cinerea, 250 ppm, 100 = 100% disease control, 0 = no control): 0%; pest or weed control at 250 ppm ([1]; Puccinia recondita, 250 ppm, 100 = 100% disease control, 0 = no control): 99%; pest or weed control at 250 ppm (Phakopsora pachyrhizi; Phakopsora pachyrhizi): 46%; pest or weed control at 250 ppm (Zymoseptoria tritici; Zymoseptoria tritici, 250 ppm, 100 = 100% disease control, 0 = no control): 100%; pest or weed control at 250 ppm ([2]; Blumeria graminis, 192 h, 250 ppm, 100 = 100% disease control, 0 = no control): 89%; pest or weed control at 250 ppm (Phytophthora infestans; Phytophthora infestans, in Solanum lycopersicum, read-out: Test D disease control rating): 97%
6 | Cn1ncc(O)c(C(=O)Nc2ccccc2-c2ccc(Cl)cc2)c1=O [Compound 28] | 0% | 97% | 27% | 0% | – | – | – | – | Test A disease control rating (Phakopsora pachyrhizi): 0%; Test E disease control rating (Zymoseptoria tritici; [3]): 0%
7 | Cn1ncc(Cl)c(C(=O)Nc2ccc(Br)cc2)c1=O [Compound 149] | 0% | 99% | 0% | 68% | – | – | – | – | Test A disease control rating (Phakopsora pachyrhizi): 92%; Test E disease control rating (Zymoseptoria tritici; [3]): 0%
8 | COc1ccccc1NC(=O)c1c(O)cnn(C)c1=O [Compound 34] | 0% | 80% | 0% | 0% | – | – | – | – | Test A disease control rating (Phakopsora pachyrhizi): 0%; Test E disease control rating (Zymoseptoria tritici; [3]): 0%
9 | Cn1ncc(O)c(C(=O)Nc2ccc(Cl)c(Cl)c2)c1=O [Compound 17] | – | – | – | – | 0% | 99% | 0% | 57% | –
10 | O=C(Nc1ccc(Cl)nc1)c1c(O)cnn(-c2ccccc2)c1=O [Compound 14] | – | – | – | – | 90% | 98% | 0% | 0% | –
11 | Cn1ncc(O)c(C(=O)Nc2cccc(Cl)c2)c1=O [Compound 11] | – | – | – | – | 48% | 95% | 31% | 0% | –
12 | Cn1ncc(O)c(C(=O)Nc2c(F)cccc2F)c1=O [Compound 20] | – | – | – | – | 0% | 0% | 0% | 0% | –
13 | Cc1cc(Cl)ccc1NC(=O)c1c(O)cnn(C)c1=O [Compound 16] | – | – | – | – | 0% | 99% | 45% | 91% | –
14 | Cn1ncc(O)c(C(=O)Nc2cccc(C#N)c2)c1=O [Compound 15] | – | – | – | – | 16% | 91% | 0% | 79% | –
15 | CCn1ncc(O)c(C(=O)Nc2ccc(OC(F)(F)F)cc2)c1=O [Compound 5] | – | – | – | – | 10% | 84% | 32% | 50% | Test E disease control rating (Zymoseptoria tritici; 200 ppm): 0%
16 | Cc1nn(C)c(=O)c(C(=O)Nc2ccc(OC(F)(F)F)cc2)c1O [Compound 3] | – | – | – | – | 0% | 0% | 37% | 0% | Test E disease control rating (Zymoseptoria tritici; 200 ppm): 0%

Row | Compound | Test C disease control rating (Botrytis cinerea; [3]) | Test F disease control rating [1, 3] | Test G disease control rating [2, 3] | Test D disease control rating (Phytophthora infestans; [3]) | Test C disease control rating (Botrytis cinerea; 200 ppm) | Test F disease control rating ([1]; 200 ppm) | Test G disease control rating ([2]; 200 ppm) | Test D disease control rating (Phytophthora infestans; 200 ppm) | also measured
17 | CN(C(=O)c1c(O)cnn(C)c1=O)c1ccc(Cl)cc1 [Compound 23] | – | – | – | – | – | – | – | – | Test C disease control rating (Botrytis cinerea; 40 ppm): 0%; Test F disease control rating ([1]; 40 ppm): 0%; Test G disease control rating ([2]; 40 ppm): 0%; Test D disease control rating (Phytophthora infestans; 40 ppm): 0%
18 | Cn1ncc(O)c(C(=O)NCc2ccc(Cl)cc2)c1=O [Compound 22] | – | – | – | – | – | – | – | – | Test C disease control rating (Botrytis cinerea; 40 ppm): 0%; Test F disease control rating ([1]; 40 ppm): 41%; Test G disease control rating ([2]; 40 ppm): 0%; Test D disease control rating (Phytophthora infestans; 40 ppm): 0%
19 | Cn1ncc(O)c(C(=O)Nc2ccc(OC(F)(F)F)cc2F)c1=O [Compound 48] | 62% | 99% | 97% | 97% | – | – | – | – | Test E disease control rating (Zymoseptoria tritici; [3]): 96%
20 | Cn1ncc(O)c(C(=O)Nc2cccc3cccnc23)c1=O [Compound 19] | – | – | – | – | 0% | 96% | 0% | 0% | –
21 | Cn1ncc(OS(=O)(=O)c2ccccc2)c(C(=O)Nc2ccc(OC(F)(F)F)cc2)c1=O [Compound 107] | 0% | 100% | 98% | 96% | – | – | – | – | Test E disease control rating (Zymoseptoria tritici; [3]): 71%
22 | Cn1ncc(O)c(C(=O)Nc2ccc(Cl)cc2)c1=O [Compound 9] | – | – | – | – | 0% | 99% | 96% | 0% | –
23 | COc1cnn(C)c(=O)c1C(=O)Nc1ccc(Cl)cc1 [Compound 8] | – | – | – | – | 0% | 0% | 0% | 0% | –
24 | Cn1ncc(O)c(C(=O)Nc2ccc(Cl)c(C(F)(F)F)c2)c1=O [Compound 18] | – | – | – | – | 0% | 83% | 46% | 0% | –
25 | Cn1ncc(O)c(C(=O)Nc2ccccc2Cl)c1=O [Compound 10] | – | – | – | – | 99% | 97% | 0% | 0% | –
26 | CCCn1ncc(O)c(C(=O)Nc2ccc(OC(F)(F)F)cc2)c1=O [Compound 4] | – | – | – | – | 0% | 95% | 97% | 99% | Test E disease control rating (Zymoseptoria tritici; 200 ppm): 0%
27 | Cn1ncc(OS(C)(=O)=O)c(C(=O)Nc2ccc(C(F)(F)F)nc2)c1=O [Compound 94] | 0% | 99% | 52% | 0% | – | – | – | – | Test A disease control rating (Phakopsora pachyrhizi): 77%
28 | Cn1ncc(OS(C)(=O)=O)c(C(=O)Nc2ncc(Cl)cn2)c1=O [Compound 95] | 0% | 68% | 0% | 0% | – | – | – | – | Test A disease control rating (Phakopsora pachyrhizi): 73%
29 | Cn1ncc(O)c(C(=O)Nc2ccc3c(c2)OC(F)(F)O3)c1=O [Compound 1] | – | – | – | – | 0% | 98% | 40% | 0% | –
30 | Cn1ncc(O)c(C(=O)Nc2ccc(Cl)cc2C#N)c1=O [Compound 24] | – | – | – | – | 99% | 91% | 0% | 0% | –
31 | CCn1ncc(O)c(C(=O)Nc2ccc(Cl)nc2)c1=O [Compound 12] | – | – | – | – | – | 91% | 93% | 0% | –
32 | Cn1ncc(O)c(C(=O)Nc2cccc(F)c2)c1=O [Compound 25] | – | – | – | – | 0% | 89% | 0% | 0* % | –
